Reference: the supplement of paper PMC10307832

Key:
Experiment in all cases: relative viability (nuclei count vs DMSO), 5 days (fraction); higher = more cells survive
[1] = test system: NCI-H322M
How it was run: (§1)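 Dosing by pin tool came one day after lung cancer cell lines were seeded in 1536-well plates, using either one drug or a fixed anchor-drug dose plus five library-drug doses (not always all listed) in √10 steps. After 5 days, nuclei were counted on 4× images. Relative viability is treated-well nuclei count divided by vehicle-well nuclei count, and values are medians of duplicate plates.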

[2] = test system: HCC-827
How it was run: as §1

[3] = test system: NCI-H1792
How it was run: as §1

[4] = test system: CAL-12T
How it was run: as §1

[5] = test system: HCC-44
How it was run: as §1

[6] = test system: LXF-289
How it was run: as §1

[7] = test system: NCI-H520
How it was run: as §1

[8] = test system: NCI-H1944
How it was run: as §1

[9] = test system: NCI-H1666
How it was run: as §1

[10] = test system: NCI-H1395
How it was run: as §1

[11] = test system: LCLC-103H
How it was run: as §1

[12] = test system: NCI-H358
How it was run: as §1

[13] = test system: NCI-H1755
How it was run: as §1

[14] = test system: RERF-LC-KJ
How it was run: as §1

[15] = test system: LU99A
How it was run: as §1

[16] = test system: NCI-H3122
How it was run: as §1

[17] = test system: NCI-H1793
How it was run: as §1

[18] = test system: ABC-1
How it was run: as §1

[19] = test system: NCI-H2347
How it was run: as §1

[20] = test system: NCI-H2126
How it was run: as §1

[21] = test system: SK-LU-1
How it was run: as §1

Cc1csc(=NC2CCCCC2)n1/N=C/c1ccc(O)c(O)c1O [MIM1] + Cc1nc(NC(=O)N2CCC[C@H]2C(N)=O)sc1-c1ccnc(C(C)(C)C(F)(F)F)c1 [Alpelisib] (partner 2 µM)
relative viability ([1]; first compound 0.2 µM): 0.771 | relative viability ([1]; first compound 0.6325 µM): 0.737 | relative viability ([1]; first compound 2 µM): 0.836 | relative viability ([1]; first compound 6.325 µM): 0.74 | relative viability ([1]; first compound 20 µM): 0.834 | relative viability ([2]; first compound 0.2 µM): 0.953 | relative viability ([2]; first compound 0.6325 µM): 0.986 | relative viability ([2]; first compound 2 µM): 0.913 | relative viability ([2]; first compound 6.325 µM): 0.441 | relative viability ([2]; first compound 20 µM): 0.34 | relative viability ([3]; first compound 0.2 µM): 0.67 | relative viability ([3]; first compound 0.6325 µM): 0.654 | relative viability ([3]; first compound 2 µM): 0.694 | relative viability ([3]; first compound 6.325 µM): 0.433 | relative viability ([3]; first compound 20 µM): 0.599 | relative viability ([4]; first compound 0.2 µM): 1.14 | relative viability ([4]; first compound 0.6325 µM): 1.36 | relative viability ([4]; first compound 2 µM): 1.24 | relative viability ([4]; first compound 6.325 µM): 0.997 | relative viability ([4]; first compound 20 µM): 0.973 | relative viability ([5]; first compound 0.2 µM): 0.835 | relative viability ([5]; first compound 0.6325 µM): 0.838 | relative viability ([5]; first compound 2 µM): 0.577 | relative viability ([5]; first compound 6.325 µM): 0.498 | relative viability ([5]; first compound 20 µM): 0.137 | relative viability ([6]; first compound 0.2 µM): 1.07 | relative viability ([6]; first compound 0.6325 µM): 0.998 | relative viability ([6]; first compound 2 µM): 1.02 | relative viability ([6]; first compound 6.325 µM): 0.82 | relative viability ([6]; first compound 20 µM): 0.609 | relative viability ([7]; first compound 0.2 µM): 0.902 | relative viability ([7]; first compound 0.6325 µM): 0.9 | relative viability ([7]; first compound 2 µM): 1.19 | relative viability ([7]; first compound 6.325 µM): 0.633 | relative viability ([7]; first compound 20 µM): 0.41 | relative viability ([8]; first compound 0.2 µM): 0.831 | relative viability ([8]; first compound 0.6325 µM): 0.849 | relative viability ([8]; first compound 2 µM): 0.671 | relative viability ([8]; first compound 6.325 µM): 0.733 | relative viability ([8]; first compound 20 µM): 0.882 | relative viability ([9]; first compound 0.2 µM): 0.827 | relative viability ([9]; first compound 0.6325 µM): 0.877 | relative viability ([9]; first compound 2 µM): 0.815 | relative viability ([9]; first compound 6.325 µM): 0.659 | relative viability ([9]; first compound 20 µM): 0.405 | relative viability ([10]; first compound 0.2 µM): 0.947 | relative viability ([10]; first compound 0.6325 µM): 1.06 | relative viability ([10]; first compound 2 µM): 0.911 | relative viability ([10]; first compound 6.325 µM): 0.537 | relative viability ([10]; first compound 20 µM): 0.407 | relative viability ([11]; first compound 0.2 µM): 0.9 | relative viability ([11]; first compound 0.6325 µM): 1.08 | relative viability ([11]; first compound 2 µM): 1.08 | relative viability ([11]; first compound 6.325 µM): 0.913 | relative viability ([11]; first compound 20 µM): 0.928 | relative viability ([12]; first compound 0.2 µM): 0.829 | relative viability ([12]; first compound 0.6325 µM): 0.881 | relative viability ([12]; first compound 2 µM): 0.721 | relative viability ([12]; first compound 6.325 µM): 0.383 | relative viability ([12]; first compound 20 µM): 0.274 | relative viability ([13]; first compound 0.2 µM): 0.93 | relative viability ([13]; first compound 0.6325 µM): 0.953 | relative viability ([13]; first compound 2 µM): 0.961 | relative viability ([13]; first compound 6.325 µM): 0.72 | relative viability ([13]; first compound 20 µM): 0.207 | relative viability ([14]; first compound 0.2 µM): 0.802 | relative viability ([14]; first compound 0.6325 µM): 0.801 | relative viability ([14]; first compound 2 µM): 0.704 | relative viability ([14]; first compound 6.325 µM): 0.668 | relative viability ([14]; first compound 20 µM): 0.213 | relative viability ([15]; first compound 0.2 µM): 0.488 | relative viability ([15]; first compound 0.6325 µM): 0.495 | relative viability ([15]; first compound 2 µM): 0.459 | relative viability ([15]; first compound 6.325 µM): 0.487 | relative viability ([15]; first compound 20 µM): 0.327 | relative viability ([16]; first compound 0.2 µM): 0.825 | relative viability ([16]; first compound 0.6325 µM): 0.833 | relative viability ([16]; first compound 2 µM): 0.881 | relative viability ([16]; first compound 6.325 µM): 0.644 | relative viability ([16]; first compound 20 µM): 0.249 | relative viability ([17]; first compound 0.2 µM): 0.509 | relative viability ([17]; first compound 0.6325 µM): 0.584 | relative viability ([17]; first compound 2 µM): 0.717 | relative viability ([17]; first compound 6.325 µM): 0.579 | relative viability ([17]; first compound 20 µM): 0.804 | relative viability ([18]; first compound 0.2 µM): 1.02 | relative viability ([18]; first compound 0.6325 µM): 1.05 | relative viability ([18]; first compound 2 µM): 0.913 | relative viability ([18]; first compound 6.325 µM): 0.816 | relative viability ([18]; first compound 20 µM): 0.322 | relative viability ([19]; first compound 0.2 µM): 1.03 | relative viability ([19]; first compound 0.6325 µM): 1.02 | relative viability ([19]; first compound 2 µM): 1.13 | relative viability ([19]; first compound 6.325 µM): 0.728 | relative viability ([19]; first compound 20 µM): 0.534 | relative viability ([20]; first compound 0.2 µM): 0.708 | relative viability ([20]; first compound 0.6325 µM): 0.756 | relative viability ([20]; first compound 2 µM): 0.776 | relative viability ([20]; first compound 6.325 µM): 0.758 | relative viability ([20]; first compound 20 µM): 0.727 | relative viability ([21]; first compound 0.2 µM): 1 | relative viability ([21]; first compound 0.6325 µM): 1.06 | relative viability ([21]; first compound 2 µM): 1.26 | relative viability ([21]; first compound 6.325 µM): 0.87 | relative viability ([21]; first compound 20 µM): 0.715

CN1CCN(CCOc2cc(OC3CCOCC3)c3c(Nc4c(Cl)ccc5c4OCO5)ncnc3c2)CC1 [Saracatinib] + Cc1nc(NC(=O)N2CCC[C@H]2C(N)=O)sc1-c1ccnc(C(C)(C)C(F)(F)F)c1 [Alpelisib] (partner 2 µM)
relative viability ([1]; first compound 0.02 µM): 0.761 | relative viability ([1]; first compound 0.2 µM): 0.876 | relative viability ([1]; first compound 0.6325 µM): 0.822 | relative viability ([1]; first compound 2 µM): 0.639 | relative viability ([2]; first compound 0.02 µM): 0.922 | relative viability ([2]; first compound 0.2 µM): 0.524 | relative viability ([2]; first compound 0.6325 µM): 0.195 | relative viability ([2]; first compound 2 µM): 0.157 | relative viability ([3]; first compound 0.02 µM): 0.706 | relative viability ([3]; first compound 0.2 µM): 0.492 | relative viability ([3]; first compound 0.6325 µM): 0.929 | relative viability ([3]; first compound 2 µM): 0.608 | relative viability ([4]; first compound 0.02 µM): 1.28 | relative viability ([4]; first compound 0.2 µM): 1.06 | relative viability ([4]; first compound 0.6325 µM): 1.33 | relative viability ([4]; first compound 2 µM): 0.927 | relative viability ([5]; first compound 0.02 µM): 0.859 | relative viability ([5]; first compound 0.2 µM): 0.658 | relative viability ([5]; first compound 0.6325 µM): 0.874 | relative viability ([5]; first compound 2 µM): 0.862 | relative viability ([6]; first compound 0.02 µM): 1.03 | relative viability ([6]; first compound 0.2 µM): 0.908 | relative viability ([6]; first compound 0.6325 µM): 1.02 | relative viability ([6]; first compound 2 µM): 0.985 | relative viability ([7]; first compound 0.02 µM): 0.901 | relative viability ([7]; first compound 0.2 µM): 0.779 | relative viability ([7]; first compound 0.6325 µM): 0.545 | relative viability ([7]; first compound 2 µM): 0.493 | relative viability ([8]; first compound 0.02 µM): 0.847 | relative viability ([8]; first compound 0.6325 µM): 0.808 | relative viability ([8]; first compound 2 µM): 0.524 | relative viability ([9]; first compound 0.02 µM): 1.22 | relative viability ([9]; first compound 0.2 µM): 0.936 | relative viability ([9]; first compound 0.6325 µM): 1.2 | relative viability ([9]; first compound 2 µM): 0.837 | relative viability ([10]; first compound 0.02 µM): 1.6 | relative viability ([10]; first compound 0.2 µM): 1.06 | relative viability ([10]; first compound 0.6325 µM): 0.956 | relative viability ([10]; first compound 2 µM): 0.851 | relative viability ([11]; first compound 0.02 µM): 0.972 | relative viability ([11]; first compound 0.2 µM): 0.831 | relative viability ([11]; first compound 0.6325 µM): 0.899 | relative viability ([11]; first compound 2 µM): 0.893 | relative viability ([12]; first compound 0.02 µM): 0.839 | relative viability ([12]; first compound 0.2 µM): 0.881 | relative viability ([12]; first compound 0.6325 µM): 0.514 | relative viability ([12]; first compound 2 µM): 0.448 | relative viability ([13]; first compound 0.02 µM): 0.928 | relative viability ([13]; first compound 0.2 µM): 0.709 | relative viability ([13]; first compound 0.6325 µM): 0.864 | relative viability ([13]; first compound 2 µM): 0.712 | relative viability ([14]; first compound 0.02 µM): 0.894 | relative viability ([14]; first compound 0.2 µM): 0.954 | relative viability ([14]; first compound 0.6325 µM): 0.831 | relative viability ([14]; first compound 2 µM): 0.662 | relative viability ([15]; first compound 0.02 µM): 0.568 | relative viability ([15]; first compound 0.2 µM): 0.371 | relative viability ([15]; first compound 0.6325 µM): 0.513 | relative viability ([15]; first compound 2 µM): 0.417 | relative viability ([16]; first compound 0.02 µM): 0.822 | relative viability ([16]; first compound 0.6325 µM): 0.664 | relative viability ([16]; first compound 2 µM): 0.46 | relative viability ([17]; first compound 0.02 µM): 0.722 | relative viability ([17]; first compound 0.2 µM): 0.75 | relative viability ([17]; first compound 0.6325 µM): 0.793 | relative viability ([17]; first compound 2 µM): 0.74 | relative viability ([18]; first compound 0.02 µM): 0.854 | relative viability ([18]; first compound 0.2 µM): 1.06 | relative viability ([18]; first compound 0.6325 µM): 0.981 | relative viability ([18]; first compound 2 µM): 0.857 | relative viability ([19]; first compound 0.02 µM): 1.03 | relative viability ([19]; first compound 0.2 µM): 0.835 | relative viability ([19]; first compound 0.6325 µM): 1.12 | relative viability ([19]; first compound 2 µM): 0.902 | relative viability ([20]; first compound 0.02 µM): 0.751 | relative viability ([20]; first compound 0.2 µM): 0.654 | relative viability ([20]; first compound 0.6325 µM): 0.749 | relative viability ([20]; first compound 2 µM): 0.622 | relative viability ([21]; first compound 0.02 µM): 0.634 | relative viability ([21]; first compound 0.2 µM): 0.673 | relative viability ([21]; first compound 0.6325 µM): 0.44 | relative viability ([21]; first compound 2 µM): 0.297
